Laboratory results taken from patent publication US8993757B2, “N-piperidin-4-yl derivatives” (Merck Sharp & Dohme B.V., priority 2011, dated 2015).

Target: T1, human FSH receptor (Homo sapiens, UniProt P23945)
T1 construct: expressed in transfected cells; host or cells: CHO cells, cotransfected with a CRE/promotor firefly luciferase reporter
T1 sequence (P23945 18-695): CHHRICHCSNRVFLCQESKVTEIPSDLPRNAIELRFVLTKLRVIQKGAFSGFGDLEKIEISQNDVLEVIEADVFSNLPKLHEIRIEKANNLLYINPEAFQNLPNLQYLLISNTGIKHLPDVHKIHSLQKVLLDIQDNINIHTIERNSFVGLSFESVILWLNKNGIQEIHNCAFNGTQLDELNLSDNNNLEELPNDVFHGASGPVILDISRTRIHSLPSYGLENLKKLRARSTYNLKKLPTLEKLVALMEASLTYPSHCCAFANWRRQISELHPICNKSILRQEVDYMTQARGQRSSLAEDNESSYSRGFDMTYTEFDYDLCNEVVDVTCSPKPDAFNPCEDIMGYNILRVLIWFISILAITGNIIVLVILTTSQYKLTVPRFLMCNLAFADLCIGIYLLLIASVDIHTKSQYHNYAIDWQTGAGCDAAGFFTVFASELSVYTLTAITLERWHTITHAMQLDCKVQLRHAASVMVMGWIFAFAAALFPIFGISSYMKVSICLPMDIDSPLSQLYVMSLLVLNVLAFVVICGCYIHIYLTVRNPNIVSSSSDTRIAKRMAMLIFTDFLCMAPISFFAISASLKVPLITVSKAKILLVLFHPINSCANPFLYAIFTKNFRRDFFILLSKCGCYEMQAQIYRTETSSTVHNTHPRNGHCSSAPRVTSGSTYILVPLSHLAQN
Assay: Antagonistic activity at the human FSH receptor expressed in CHO cells (CRE-luciferase reporter)
Assay type: cell-based
Conditions: CHO cells stably transfected with human FSH receptor and CRE/firefly luciferase reporter; 4 hours incubation; read-out: pIC50 (negative logarithm of the IC50 value) (converted)
Experimental: The FSHR antagonists of the invention have pIC50 values higher than 6 in said assay. The preferred compounds of the invention have pIC50 values higher than 8.
Antagonistic activity of the compounds at the human FSH receptor was determined in Chinese Hamster Ovary (CHO) cells stably transfected with the human FSH receptor and cotransfected with a cAMP responsive element (CRE)/promotor directing the expression of a firefly luciferase reporter gene. […] The cells (7,500 cells/well of a 384 well plate) were incubated in Dulbecco′ minimal essential F12 modified medium (Invitrogen), supplemented with 1 μg/ml bovine insulin, 5 μg/ml human apo-transferrin, 100 U/ml penicillin G and 100 μg/ml streptomycin with the test compounds (concentration between 0.316 nM and 10.0 μM) in duplicate together with […] (which, at this concentration in the absence of test compound, induces 80% of the maximal luciferase stimulation) in a humidified atmosphere (95%) at 5-7% CO2 and 37° C. The final concentration of DMSO was 1%. After 4 hours of incubation, plates were allowed to adjust to room temperature for 1 hour. Then, SteadyLite (Perkin Elmer) solution was added to the wells and cells were allowed to lyse for at least 1 hour at room temperature. Subsequently, luciferase activity was measured in a luminescence counter. The signal is expressed as counts per second (cps). The IC50 (concentration of test compound causing half-maximal (50%) inhibition of the maximally attainable inhibition of the luciferase stimulation by the compound) and efficacy of the compounds were determined using the software program MathIQ (version 2.3, ID Business Solutions Limited).

Compound	IC50
COc1cc(OCC2CC2)cc(C(=O)NCC2CCN(c3ccnc(-c4ccc5oncc5c4)n3)CC2)c1 [Example 33B, N-((1-(2-(benzo[d]isoxazol-5-yl)pyrimidin-4-yl)piperidin-4-yl)methyl)-3-(cyclopropylmethoxy)-5-methoxybenzamide]	10 to 100 nM
COCCCOc1cc(OC)cc(C(=O)NCC2CCN(c3nc(-c4cccc(-c5cc[nH]n5)c4)ncc3F)CC2)c1 [Example 23A, N-((1-(2-(3-(1H-pyrazol-3-yl)phenyl)-5-fluoropyrimidin-4-yl)piperidin-4-yl)methyl)-3-methoxy-5-(3-methoxypropoxy)benzamide]	10 to 100 nM
COc1cc(OCCO)cc(C(=O)NCC2CCN(c3nc(-c4cccc(-c5cc[nH]n5)c4)ncc3F)CC2)c1 [Example 22, N-((1-(2-(3-(1H-pyrazol-3-yl)phenyl)-5-fluoropyrimidin-4-yl)piperidin-4-yl)methyl)-3-(2-hydroxyethoxy)-5-methoxybenzamide]	10 to 100 nM
COc1cc(NC(=O)C2CCN(c3ccnc(-c4cccc(-n5cccn5)c4)n3)CC2)cc(OCc2ccc(F)cc2)c1 [Example 42, 1-(2-(3-(1H-pyrazol-1-yl)phenyl)pyrimidin-4-yl)-N-(3-(4-fluorobenzoxy)-5-methoxyphenyl)piperidine-4-carboxamide]	10 to 100 nM
COc1cc(OCC2CC2)cc(C(=O)NCC2CCN(c3nc(-c4cccc(-c5ncc[nH]5)c4)ncc3F)CC2)c1 [Example 41, N-((1-(2-(3-(1H-imidazol-2-yl)phenyl)-5-fluoropyrimidin-4-yl)piperidin-4-yl)methyl)-3-(cyclopropylmethoxy)-5-methoxybenzamide 2,2,2-trifluoroacetate]	< 10 nM
COc1cc(OC)cc(C(=O)NCC2CCN(c3ccnc(-c4cccc(-c5ccn[nH]5)c4)n3)CC2)c1 [Example 18, N-((1-(2-(3-(1H-pyrazol-5-yl)phenyl)pyrimidin-4-yl)piperidin-4-yl)methyl)-3,5-dimethoxybenzamide]	10 to 100 nM
COc1cc(OCC2CC2)cc(C(=O)NCC2CCN(c3nc(-c4cccc(C#N)c4)ncc3F)CC2)c1 [Example 19B, N-((1-(2-(3-cyanophenyl)-5-fluoropyrimidin-4-yl)piperidin-4-yl)methyl)-3-(cyclopropylmethoxy)-5-methoxybenzamide]	10 to 100 nM
COc1cc(OCC2CC2)cc(C(=O)NCC2CCN(c3ccnc(-c4cccc(-n5cccn5)n4)n3)CC2)c1 [Example 33E, N-((1-(2-(6-(1H-pyrazol-1-yl)pyridin-2-yl)pyrimidin-4-yl)piperidin-4-yl)methyl)-3-(cyclopropylmethoxy)-5-methoxybenzamide]	10 to 100 nM
